We go through five compounds from ChEMBL document CHEMBL1146844, “Probing a water channel near the A-ring of receptor-bound 1 alpha,25-dihydroxyvitamin D3 with selected 2 alpha-substituted analogues” (J Med Chem, 2006).

SMILES strings stand for the structures. The source made the active and inactive calls. The calls are words filed in the database; no cut-off is given here.

The assay concerns HL-60. Nature of the assay: Induction of HL60 cell differentiation in correlation with affinity to human VDR. The class given is functional, cell-based.
Consider `C=C1/C(=C\C=C2/CCC[C@]3(C)[C@@H]([C@H](C)CCCC(C)(C)O)CC[C@@H]23)C[C@@H](O)[C@H](CCC)[C@@H]1O`, for which the result was Active. Consider `C=C1/C(=C\C=C2/CCC[C@]3(C)[C@@H]([C@H](C)CCCC(C)(C)O)CC[C@@H]23)C[C@H](O)[C@@H](OCCC)[C@H]1O`, for which the outcome was inactive.

For `C=C1/C(=C\C=C2/CCC[C@]3(C)[C@@H]([C@H](C)CCCC(C)(C)O)CC[C@@H]23)C[C@@H](O)[C@H](CCCO)[C@@H]1O`, the outcome was Active. With `C=C1/C(=C\C=C2/CCC[C@]3(C)[C@@H]([C@H](C)CCCC(C)(C)O)CC[C@@H]23)C[C@@H](O)[C@H](C)[C@@H]1O`, the result was Active.

Consider `C=C1/C(=C\C=C2/CCC[C@]3(C)[C@@H]([C@H](C)CCCC(C)(C)O)CC[C@@H]23)C[C@@H](O)[C@H](OCCCO)[C@@H]1O`, for which the result was inactive.
